Each structure is given as a SMILES string. Where a name gives a salt, the structure may show the parent alone.

For data set [1] the following is noted: cited from earlier work.
The nature of the next data set: in vivo. The following applies: male, beagle, dog, plasma, po, 500 mg.
The conditions of data set [2]: Beagle dog, oral, 500 mg, 1 dose.

With `CN(C)C(=N)N=C(N)N` [Metformin], the “Time to complete absorption after administration” value in data set [1] (estimated) is recorded as ≤ 6 h. In data set [1] (in vivo), the “Absorbed in the remaining part of (lower) intestine tract” value was “about 40%” and the Recovered in faeces result was “up to 30%”.
Consider `CN(C)C(=N)N=C(N)N` [Metformin (Matrix-free), metformin hydrochloride], for which, in the data set “in vivo”, the AUC(0-inf) (as a rule, the area under the concentration-time curve extrapolated to infinity) turned out to be 81200 ng·h/mL; the AUC(0-t) (in general, the area under the concentration-time curve up to a stated or last time point) was 77900 ng·h/mL; the highest level (Cmax) was 12400 ng/mL; the mean residence time (MRT) (in general, a mean duration of stay, worked out from the concentration-time curve) amounted to 8.02 h. The Tmax (commonly the time at which the peak concentration occurs) in the data set “in vivo” was determined as 1.3 h. The “Ke (terminal elimination rate per hour)” value in data set [2] came to 0.157 h⁻¹.

The values above are taken from patent US20240293327A1, “MONOLITHIC TABLETS BASED ON CARBOXYL POLYMERIC COMPLEXES FOR CONTROLLED DRUG RELEASE” (MATRIPHARM INTERNATIONAL INC., priority 2014, published 2024).
